Measured values taken from the supplement of paper PMC10307832.

Experiments:
Experiment in all cases: relative viability (nuclei count vs DMSO), 5 days (fraction); higher = more cells survive
[1] = compound: COc1cccc2c1C(=O)c1c(O)c3c(c(O)c1C2=O)C[C@@](O)(C(=O)CO)C[C@@H]3O[C@H]1C[C@H](N)[C@H](O)[C@H](C)O1 [Doxorubicin] + Nc1ncn([C@H]2C[C@H](O)[C@@H](CO)O2)c(=O)n1 [Decitabine] (partner 2 µM)
How it was run: (§1)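 Lung cancer cell lines, seeded in 1536-well plates, were treated the following day by pin tool with a single drug or with five library-drug doses (not always all listed) in √10 steps on top of a fixed anchor-drug dose. Cells were fixed and nuclei stained in one step after 5 days, and nuclei were counted. Relative viability is the nuclei count for treated wells divided by that for vehicle wells, reported as medians of duplicate plates.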

[2] = compound: COC1=C(C=C(C=C1)C2=CC3=NC=CN3C(=N2)NC4=C(C=CC=N4)C(=O)N)OC [BAY61-3606] + CC(=O)c1c(C)c2cnc(Nc3ccc(N4CCNCC4)cn3)nc2n(C2CCCC2)c1=O [Palbociclib] (partner 0.5 µM)
How it was run: as §1

[3] = compound: COc1cccc2c1C(=O)c1c(O)c3c(c(O)c1C2=O)C[C@@](O)(C(=O)CO)C[C@@H]3O[C@H]1C[C@H](N)[C@H](O)[C@H](C)O1 [Doxorubicin] + C[C@@H](Oc1cc(-c2cnn(C3CCNCC3)c2)cnc1N)c1c(Cl)ccc(F)c1Cl [Crizotinib] (partner 1 µM)
How it was run: as §1

[4] = compound: COC1=C(C=C(C=C1)C2=CC3=NC=CN3C(=N2)NC4=C(C=CC=N4)C(=O)N)OC [BAY61-3606] + NC(=O)Nc1cc(-c2cccc(F)c2)sc1C(=O)N[C@H]1CCCNC1 [AZD7762] (partner 0.2 µM)
How it was run: as §1

## NCI-H1666
[1]; first compound 0.001 µM
  relative viability: 0.671
[1]; first compound 0.003162 µM
  relative viability: 0.759
[1]; first compound 0.01 µM
  relative viability: 0.662
[1]; first compound 0.03162 µM
  relative viability: 0.692
[1]; first compound 0.1 µM
  relative viability: 0.697
[2]; first compound 0.02 µM
  relative viability: 0.657
[2]; first compound 0.06325 µM
  relative viability: 0.745
[2]; first compound 0.2 µM
  relative viability: 0.731
[2]; first compound 0.6325 µM
  relative viability: 0.634
[2]; first compound 2 µM
  relative viability: 0.688
[3]; first compound 0.001 µM
  relative viability: 1.02
[3]; first compound 0.003162 µM
  relative viability: 0.915
[3]; first compound 0.01 µM
  relative viability: 0.608
[3]; first compound 0.03162 µM
  relative viability: 0.295
[3]; first compound 0.1 µM
  relative viability: 0.285
[4]; first compound 0.02 µM
  relative viability: 0.917
[4]; first compound 0.06325 µM
  relative viability: 0.895
[4]; first compound 0.2 µM
  relative viability: 0.852
[4]; first compound 0.6325 µM
  relative viability: 0.834
[4]; first compound 2 µM
  relative viability: 0.82

## NCI-H647
[1]; first compound 0.001 µM
  relative viability: 0.39
[1]; first compound 0.003162 µM
  relative viability: 0.387
[1]; first compound 0.01 µM
  relative viability: 0.342
[1]; first compound 0.03162 µM
  relative viability: 0.206
[1]; first compound 0.1 µM
  relative viability: 0.183
[2]; first compound 0.02 µM
  relative viability: 0.386
[2]; first compound 0.06325 µM
  relative viability: 0.358
[2]; first compound 0.2 µM
  relative viability: 0.328
[2]; first compound 0.6325 µM
  relative viability: 0.401
[2]; first compound 2 µM
  relative viability: 0.235
[3]; first compound 0.001 µM
  relative viability: 1.02
[3]; first compound 0.003162 µM
  relative viability: 1.26
[3]; first compound 0.01 µM
  relative viability: 0.84
[3]; first compound 0.03162 µM
  relative viability: 0.375
[3]; first compound 0.1 µM
  relative viability: 0.17
[4]; first compound 0.02 µM
  relative viability: 0.433
[4]; first compound 0.06325 µM
  relative viability: 0.393
[4]; first compound 0.2 µM
  relative viability: 0.383
[4]; first compound 0.6325 µM
  relative viability: 0.444
[4]; first compound 2 µM
  relative viability: 0.324

## LCLC-97TM1
[1]; first compound 0.001 µM
  relative viability: 0.229
[1]; first compound 0.003162 µM
  relative viability: 0.233
[1]; first compound 0.01 µM
  relative viability: 0.178
[1]; first compound 0.03162 µM
  relative viability: 0.176
[1]; first compound 0.1 µM
  relative viability: 0.242
[2]; first compound 0.02 µM
  relative viability: 0.241
[2]; first compound 0.06325 µM
  relative viability: 0.222
[2]; first compound 0.2 µM
  relative viability: 0.281
[2]; first compound 0.6325 µM
  relative viability: 0.218
[2]; first compound 2 µM
  relative viability: 0.301
[3]; first compound 0.001 µM
  relative viability: 0.365
[3]; first compound 0.003162 µM
  relative viability: 0.455
[3]; first compound 0.01 µM
  relative viability: 0.244
[3]; first compound 0.03162 µM
  relative viability: 0.344
[3]; first compound 0.1 µM
  relative viability: 0.371
[4]; first compound 0.02 µM
  relative viability: 0.204
[4]; first compound 0.06325 µM
  relative viability: 0.326
[4]; first compound 0.2 µM
  relative viability: 0.228
[4]; first compound 0.6325 µM
  relative viability: 0.393
[4]; first compound 2 µM
  relative viability: 0.345

## LOU-NH91
[1]; first compound 0.003162 µM
  relative viability: 0.816
[1]; first compound 0.01 µM
  relative viability: 0.837
[1]; first compound 0.03162 µM
  relative viability: 0.758
[1]; first compound 0.1 µM
  relative viability: 0.693
[2]; first compound 0.02 µM
  relative viability: 0.547
[2]; first compound 0.06325 µM
  relative viability: 0.503
[2]; first compound 0.2 µM
  relative viability: 0.529
[2]; first compound 0.6325 µM
  relative viability: 0.508
[2]; first compound 2 µM
  relative viability: 0.557
[3]; first compound 0.003162 µM
  relative viability: 0.763
[3]; first compound 0.01 µM
  relative viability: 0.772
[3]; first compound 0.03162 µM
  relative viability: 0.674
[3]; first compound 0.1 µM
  relative viability: 0.711
[4]; first compound 0.02 µM
  relative viability: 0.792
[4]; first compound 0.06325 µM
  relative viability: 0.686
[4]; first compound 0.2 µM
  relative viability: 0.748
[4]; first compound 0.6325 µM
  relative viability: 0.784
[4]; first compound 2 µM
  relative viability: 0.656

## RERF-LC-KJ
[1]; first compound 0.001 µM
  relative viability: 0.78
[1]; first compound 0.003162 µM
  relative viability: 0.671
[1]; first compound 0.01 µM
  relative viability: 0.598
[1]; first compound 0.03162 µM
  relative viability: 0.334
[1]; first compound 0.1 µM
  relative viability: 0.282
[2]; first compound 0.02 µM
  relative viability: 1.03
[2]; first compound 0.06325 µM
  relative viability: 1.2
[2]; first compound 0.2 µM
  relative viability: 1.03
[2]; first compound 0.6325 µM
  relative viability: 1.18
[2]; first compound 2 µM
  relative viability: 0.924
[3]; first compound 0.001 µM
  relative viability: 0.872
[3]; first compound 0.003162 µM
  relative viability: 0.846
[3]; first compound 0.01 µM
  relative viability: 0.865
[3]; first compound 0.03162 µM
  relative viability: 0.956
[3]; first compound 0.1 µM
  relative viability: 0.7
[4]; first compound 0.02 µM
  relative viability: 1.07
[4]; first compound 0.06325 µM
  relative viability: 0.846
[4]; first compound 0.2 µM
  relative viability: 1.03
[4]; first compound 0.6325 µM
  relative viability: 0.872
[4]; first compound 2 µM
  relative viability: 0.869

## NCI-H1437
[1]; first compound 0.001 µM
  relative viability: 0.538
[1]; first compound 0.003162 µM
  relative viability: 0.616
[1]; first compound 0.01 µM
  relative viability: 0.501
[1]; first compound 0.03162 µM
  relative viability: 0.417
[1]; first compound 0.1 µM
  relative viability: 0.361
[2]; first compound 0.02 µM
  relative viability: 0.338
[2]; first compound 0.06325 µM
  relative viability: 0.28
[2]; first compound 0.2 µM
  relative viability: 0.312
[2]; first compound 0.6325 µM
  relative viability: 0.387
[2]; first compound 2 µM
  relative viability: 0.315
[3]; first compound 0.001 µM
  relative viability: 0.866
[3]; first compound 0.003162 µM
  relative viability: 0.924
[3]; first compound 0.01 µM
  relative viability: 0.962
[3]; first compound 0.03162 µM
  relative viability: 0.517
[3]; first compound 0.1 µM
  relative viability: 0.262
[4]; first compound 0.02 µM
  relative viability: 1.14
[4]; first compound 0.06325 µM
  relative viability: 1.08
[4]; first compound 0.2 µM
  relative viability: 1.17
[4]; first compound 0.6325 µM
  relative viability: 1.21
[4]; first compound 2 µM
  relative viability: 1.12

## NCI-H2087
[1]; first compound 0.001 µM
  relative viability: 0.291
[1]; first compound 0.003162 µM
  relative viability: 0.264
[1]; first compound 0.01 µM
  relative viability: 0.239
[1]; first compound 0.03162 µM
  relative viability: 0.242
[1]; first compound 0.1 µM
  relative viability: 0.173
[2]; first compound 0.02 µM
  relative viability: 0.234
[2]; first compound 0.06325 µM
  relative viability: 0.264
[2]; first compound 0.2 µM
  relative viability: 0.221
[2]; first compound 0.6325 µM
  relative viability: 0.28
[2]; first compound 2 µM
  relative viability: 0.249
[3]; first compound 0.001 µM
  relative viability: 0.795
[3]; first compound 0.003162 µM
  relative viability: 0.952
[3]; first compound 0.01 µM
  relative viability: 0.923
[3]; first compound 0.03162 µM
  relative viability: 0.661
[3]; first compound 0.1 µM
  relative viability: 0.666
[4]; first compound 0.02 µM
  relative viability: 1.31
[4]; first compound 0.06325 µM
  relative viability: 1.43
[4]; first compound 0.2 µM
  relative viability: 1.35
[4]; first compound 0.6325 µM
  relative viability: 1.23
[4]; first compound 2 µM
  relative viability: 0.959
